Assay results published in US20100197797A1 (priority 2009, published 2010).
Where two headings read alike, the source gives them in different places.

Experiments:
[1] = Urinary excretion after oral 14C-milnacipran hydrochloride; format: in vivo, human
Source text: Milnacipran and its metabolites are eliminated primarily by renal excretion. […] The l-milnacipran carbamoyl-O-glucuronide was the major metabolite excreted in urine and accounted for approximately 17% of the dose; approximately 2% of the dose was excreted in urine as d-milnacipran carbamoyl-O-glucuronide.

[2] = test system: muscarinic (M1-5) receptors; assay: Receptor affinity in vitro; format: binding
fibromyalgia patients = assay: Placebo-controlled trials in fibromyalgia patients (safety); format: in vivo, human; details: human, in vivo
Source text: The stated frequencies of adverse reactions represent the proportion of individuals who experienced, at least once, a treatment-emergent adverse reaction of the type listed. A reaction was considered treatment emergent if it occurred for the first time or worsened while receiving therapy following baseline evaluation.

[3] = human, in vivo
Source text: Dosage adjustment based on gender is not necessary.

benzodiazepine receptors = assay: Receptor affinity in vitro; format: binding
acetylcholinesterase = acetylcholinesterase (Homo sapiens, UniProt P22303); assay: Enzyme inhibition; format: biochemical
Chain of acetylcholinesterase (P22303 32-614, species assumed): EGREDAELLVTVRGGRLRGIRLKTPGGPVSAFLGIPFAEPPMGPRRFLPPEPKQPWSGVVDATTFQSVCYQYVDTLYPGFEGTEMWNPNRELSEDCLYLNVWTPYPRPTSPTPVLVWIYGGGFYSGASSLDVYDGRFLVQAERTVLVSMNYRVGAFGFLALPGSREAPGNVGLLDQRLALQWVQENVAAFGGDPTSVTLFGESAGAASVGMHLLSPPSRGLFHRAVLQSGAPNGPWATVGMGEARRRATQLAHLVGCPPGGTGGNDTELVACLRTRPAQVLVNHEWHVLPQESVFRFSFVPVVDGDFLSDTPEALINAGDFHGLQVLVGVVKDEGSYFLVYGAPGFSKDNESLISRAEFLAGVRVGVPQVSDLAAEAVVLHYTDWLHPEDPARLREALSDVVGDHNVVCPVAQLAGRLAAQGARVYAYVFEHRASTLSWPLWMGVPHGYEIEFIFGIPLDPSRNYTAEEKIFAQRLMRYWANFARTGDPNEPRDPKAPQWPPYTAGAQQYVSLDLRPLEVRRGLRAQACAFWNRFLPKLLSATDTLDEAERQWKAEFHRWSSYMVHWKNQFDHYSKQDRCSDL

Na^+ channels = assay: Ion channel affinity; format: binding
[4] = set-up: species or system human; details: in vivo, po
Source text: AUC0-∞ and T½ were similar in healthy subjects and subjects with mild and moderate hepatic impairment. […] Caution should be exercised in patients with severe hepatic impairment.

uptake of dopamine [5] = molecular target: T1, uptake of dopamine (Homo sapiens, UniProt Q01959); assay: Dopamine uptake; format: biochemical; details: preclinical studies
T1 sequence (Q01959 whole entry): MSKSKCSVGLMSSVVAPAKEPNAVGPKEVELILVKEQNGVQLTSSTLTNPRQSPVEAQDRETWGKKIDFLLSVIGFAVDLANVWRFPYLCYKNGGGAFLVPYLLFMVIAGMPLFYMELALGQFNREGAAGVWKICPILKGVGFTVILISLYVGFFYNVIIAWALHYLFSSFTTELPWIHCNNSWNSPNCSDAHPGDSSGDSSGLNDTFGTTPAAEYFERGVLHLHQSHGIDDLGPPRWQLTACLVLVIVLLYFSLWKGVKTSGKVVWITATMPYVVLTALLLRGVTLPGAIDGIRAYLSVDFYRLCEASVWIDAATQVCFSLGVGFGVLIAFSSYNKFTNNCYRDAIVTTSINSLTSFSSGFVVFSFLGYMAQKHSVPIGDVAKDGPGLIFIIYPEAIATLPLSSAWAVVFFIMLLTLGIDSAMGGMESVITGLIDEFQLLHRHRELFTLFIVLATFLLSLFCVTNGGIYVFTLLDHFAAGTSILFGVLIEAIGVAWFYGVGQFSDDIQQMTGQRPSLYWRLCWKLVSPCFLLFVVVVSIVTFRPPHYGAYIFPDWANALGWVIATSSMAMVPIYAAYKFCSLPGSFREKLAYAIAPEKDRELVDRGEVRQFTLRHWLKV

[6] = test system: serotonergic (5-HT1-7) receptors; assay: Receptor affinity in vitro; format: binding
[7] = molecular target: human monoamine oxidase MAO-B (Homo sapiens, UniProt P27338); assay: Enzyme inhibition; format: biochemical
Chain of human monoamine oxidase MAO-B (P27338 whole entry): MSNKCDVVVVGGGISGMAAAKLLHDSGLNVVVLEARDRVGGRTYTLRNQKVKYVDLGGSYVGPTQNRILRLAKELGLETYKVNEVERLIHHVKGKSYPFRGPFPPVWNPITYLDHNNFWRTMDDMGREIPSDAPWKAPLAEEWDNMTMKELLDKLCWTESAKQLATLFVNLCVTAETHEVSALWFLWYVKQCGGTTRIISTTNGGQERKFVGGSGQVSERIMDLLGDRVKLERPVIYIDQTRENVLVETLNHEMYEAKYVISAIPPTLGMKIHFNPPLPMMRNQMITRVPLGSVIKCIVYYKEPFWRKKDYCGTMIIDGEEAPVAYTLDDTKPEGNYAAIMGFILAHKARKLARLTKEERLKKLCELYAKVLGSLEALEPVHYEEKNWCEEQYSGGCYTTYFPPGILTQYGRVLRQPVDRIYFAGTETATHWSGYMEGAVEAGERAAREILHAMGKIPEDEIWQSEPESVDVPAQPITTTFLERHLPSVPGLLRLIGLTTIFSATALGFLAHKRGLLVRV

primate = details: in vivo
Source text: (§1) The clinical significance of the finding is not known.

rats [8] = details: rat, in vivo, 15 mg/kg
Source text: as §1

Cl^− channels = assay: Ion channel affinity; format: binding
[9] = in vivo
Source text: Milnacipran is not a controlled substance.
These withdrawal symptoms can be severe. Thus, in certain embodiments, milnacipran hydrochloride should be tapered and not abruptly discontinued after extended use.

rats [10] = assay: Reproductive toxicity in rats (dead fetuses in utero); format: in vivo, rat; details: 5 mg/kg/day (0.25 times the MRHD on a mg/m^2 basis)
mice = assay: Embryotoxicity/teratogenicity in mice, period of organogenesis; format: in vivo, mouse; details: up to 125 mg/kg/day (3 times the MRHD)
Ca^++ channels = assay: Ion channel affinity; format: binding
rats [11] = details: rat, in vivo, 50 mg/kg/day
patients = assay: Spontaneous / postmarketing reports; format: in vivo, human; details: in vivo
Source text: However, because these adverse reactions were reported voluntarily from a population of uncertain size, it is not always possible to reliably estimate their frequency or establish a causal relationship to drug exposure.

[12] = test system: dopamine (D1-5) receptors; assay: Receptor affinity in vitro; format: binding
[13] = molecular target: human monoamine oxidase MAO-A (Homo sapiens, UniProt P21397); assay: Enzyme inhibition; format: biochemical
Chain of human monoamine oxidase MAO-A (P21397 whole entry): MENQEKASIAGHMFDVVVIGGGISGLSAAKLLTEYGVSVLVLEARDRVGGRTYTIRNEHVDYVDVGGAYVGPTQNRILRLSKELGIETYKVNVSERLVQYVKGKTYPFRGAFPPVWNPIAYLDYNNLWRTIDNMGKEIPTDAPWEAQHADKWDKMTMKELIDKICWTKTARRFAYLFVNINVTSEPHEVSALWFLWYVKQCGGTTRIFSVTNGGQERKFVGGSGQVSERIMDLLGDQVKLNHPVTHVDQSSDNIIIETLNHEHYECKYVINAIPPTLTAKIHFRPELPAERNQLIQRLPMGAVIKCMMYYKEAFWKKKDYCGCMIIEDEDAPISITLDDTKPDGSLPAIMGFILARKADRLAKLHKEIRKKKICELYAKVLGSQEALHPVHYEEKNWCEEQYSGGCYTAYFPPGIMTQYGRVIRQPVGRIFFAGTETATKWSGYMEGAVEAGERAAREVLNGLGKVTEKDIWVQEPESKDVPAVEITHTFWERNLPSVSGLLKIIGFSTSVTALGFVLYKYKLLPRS

rat = details: in vivo
clinical = details: in vivo
Procedure: The pharmacokinetic parameters described herein include area under the plasma concentration-time curve (AUC0-t and AUC0-∞), maximum plasma concentration (Cmax), time of maximum plasma concentration (Tmax) and terminal elimination half-life (T1/2). The time of maximum concentration, Tmax, is determined as the time corresponding to Cmax. Area under the plasma concentration-time curve up to the time corresponding to the last measurable concentration (AUC0-t) is calculated by numerical integration using the linear trapezoidal rule as follows: […]

K^+ channels = assay: Ion channel affinity; format: binding
[14] = test system: γ-aminobutyric acid (GABA) receptors; assay: Receptor affinity in vitro; format: binding
[15] = test system: histamine (H1-4) receptors; assay: Receptor affinity in vitro; format: binding
β-adrenergic receptors = assay: Receptor affinity in vitro; format: binding
[16] = Drug interaction studies in healthy adult subjects; format: in vivo, human; details: human, in vivo
Procedure: The drug interaction studies described below were conducted in healthy adult subjects.

[17] = molecular target: neuronal serotonin reuptake (Homo sapiens, UniProt P31645); assay: Serotonin uptake inhibition in vitro; format: biochemical; details: preclinical studies
Chain of neuronal serotonin reuptake (P31645 whole entry): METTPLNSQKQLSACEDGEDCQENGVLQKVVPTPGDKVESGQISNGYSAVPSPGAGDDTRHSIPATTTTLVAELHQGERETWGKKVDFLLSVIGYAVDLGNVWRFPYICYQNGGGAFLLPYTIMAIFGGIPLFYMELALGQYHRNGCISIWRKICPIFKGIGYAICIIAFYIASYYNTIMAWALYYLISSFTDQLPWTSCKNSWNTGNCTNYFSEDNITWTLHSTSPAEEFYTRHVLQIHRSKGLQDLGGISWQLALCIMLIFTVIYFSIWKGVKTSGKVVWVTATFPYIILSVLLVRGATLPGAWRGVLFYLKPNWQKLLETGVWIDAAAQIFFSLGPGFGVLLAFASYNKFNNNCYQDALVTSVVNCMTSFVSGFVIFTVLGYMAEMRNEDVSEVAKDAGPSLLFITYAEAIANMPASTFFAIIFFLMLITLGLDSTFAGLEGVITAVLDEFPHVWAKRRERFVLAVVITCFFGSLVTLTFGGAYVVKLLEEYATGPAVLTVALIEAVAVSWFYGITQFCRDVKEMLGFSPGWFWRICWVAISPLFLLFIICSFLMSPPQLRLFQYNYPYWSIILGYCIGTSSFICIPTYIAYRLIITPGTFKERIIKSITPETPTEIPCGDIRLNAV

uptake of dopamine [18] = molecular target: T1, uptake of dopamine; details: cited from earlier work
mouse = details: in vivo
rabbits = assay: Embryotoxicity/teratogenicity in rabbits, period of organogenesis; format: in vivo, rabbit; details: up to 60 mg/kg/day (6 times the MRHD)
rats [19] = assay: Oral administration to rats during late gestation; format: in vivo
Procedure: The no-effect dose for maternal and offspring toxicity was 2.5 mg/kg/day (approximately 0.1 times the MRHD on a mg/m^2 basis).

[20] = test system: bacterial reverse mutation; assay: In vitro bacterial reverse mutation assay (Ames test); format: cell-based
[21] = test system: L5178Y TK+/− mouse lymphoma; format: cell-based
human lymphocytes = format: cell-based
opiate receptors = assay: Receptor affinity in vitro; format: binding
α-adrenergic receptors = assay: Receptor affinity in vitro; format: binding
[22] = oral 14C-milnacipran hydrochloride

## CCN(CC)C(=O)[C@@]1(c2ccccc2)C[C@H]1CNC(=O)O[C@@H]1O[C@H](C(=O)O)[C@@H](O)[C@H](O)[C@H]1O [l-milnacipran carbamoyl-O-glucuronide]
[1]; [22]
  dose excreted in urine as this species: approximately 17%

## CCN(CC)C(=O)[C@@]1(c2ccccc2)C[C@H]1CN [l-milnacipran]
[1]; [22]
  dose excreted in urine as this species: 24%

## CCN(CC)C(=O)C1(c2ccccc2)CC1CN (stereo not shown) [milnacipran]
[2]
  affinity: no significant affinity
[1]; human, in vivo, po
  dose excreted in urine as this species: approximately 55%
Fibromyalgia patients
  withdrawal due to constipation: 1%
  withdrawal due to dizziness: 1%
  withdrawal due to headache: 2%
  withdrawal due to heart rate increased: 1%
  withdrawal due to hyperhidrosis: 1%
  withdrawal due to nausea: 6%
  withdrawal due to palpitations: 3%
  withdrawal due to vomiting: 1%
  withdrawal symptoms following discontinuation: Withdrawal symptoms have been observed
[3]; both
  higher AUC: about 20%
  higher Cmax: about 20%
[3]
  higher AUC: about 30%
  higher Cmax: about 30%
Benzodiazepine receptors
  affinity: no significant affinity
acetylcholinesterase
  inhibition of activity: does not inhibit
Na^+ channels
  affinity: no significant affinity
[4]; human, 50 mg
  higher AUC0-∞ than healthy subjects: 31%
  higher T½ than healthy subjects: 55%
[4]
  T½ vs healthy subjects: similar
Uptake of dopamine [5]
  effect on uptake of dopamine or other neurotransmitters: without directly affecting
[6]
  affinity: no significant affinity
[7]
  inhibition of activity: does not inhibit
primate
  keratitis of the eye: did not show this response
Rats [8]
  hepatic findings: increased incidences of centrilobular vacuolation of the liver in male rats and eosinophilic foci in male and female rats
  keratitis of the eye: increased incidence of keratitis of the eye
Cl^− channels
  affinity: no significant affinity
[9]
  behavioral signs indicative of abuse potential: did not produce behavioral signs indicative of abuse potential
  physical dependence: produces physical dependence
Rats [10]
  incidence of dead fetuses in utero: increased the incidence of dead fetuses in utero
mice
  embryotoxicity or teratogenicity: did not result in embryotoxicity or teratogenicity
Ca^++ channels
  affinity: no significant affinity
Rats [11]
  tumor incidence: statistically significant increase in the incidence of thyroid C-cell adenomas and combined adenomas and carcinomas in males
patients
  liver findings: cases of increased liver enzymes and reports of severe liver injury, including fulminant hepatitis
[12]
  affinity: no significant affinity
[13]
  inhibition of activity: does not inhibit
rat
  keratitis of the eye: did not show this response
clinical; human
  dose excreted unchanged in urine: 55%
  half-life: 6 to 8 h
  time to steady-state levels: 36 to 48 h
clinical; human, iv
  Vd: ~400 L
clinical; human, po
  bioavailability: 85 to 90%
clinical
  exposure vs dose: increased proportionally
K^+ channels
  affinity: no significant affinity
[14]
  affinity: no significant affinity
[15]
  affinity: no significant affinity
β-adrenergic receptors
  affinity: no significant affinity
[16]
  adverse events after switching from clomipramine: an increase in adverse events (e.g., euphoria and postural hypotension)
[17]
  inhibition of neuronal serotonin reuptake: potent inhibitor
Uptake of dopamine [18]
  effect on uptake of dopamine: does not affect
mouse
  clastogenicity: not clastogenic
rabbits
  embryotoxicity or teratogenicity: did not result in embryotoxicity or teratogenicity
Rats [19]; rat, in vivo, po, 5 mg/kg/day
  pup body weight and viability on postpartum day 4: decrease in pup body weight and viability
Rats [19]; rats (approximately 0.1 times the MRHD)
  no-effect dose for maternal and offspring toxicity: 2.5 mg/kg/day
[20]
  mutagenicity: not mutagenic
[21]
  mutagenicity: not mutagenic
Human lymphocytes
  clastogenicity: not clastogenic
Opiate receptors
  affinity: no significant affinity
α-adrenergic receptors
  affinity: no significant affinity

## CCN(CC)C(=O)[C@]1(c2ccccc2)C[C@@H]1CN [d-milnacipran]
[1]; [22]
  dose excreted in urine as this species: 31%

## CCN(CC)C(=O)[C@]1(c2ccccc2)C[C@@H]1CNC(=O)O[C@@H]1O[C@H](C(=O)O)[C@@H](O)[C@H](O)[C@H]1O [d-milnacipran carbamoyl-O-glucuronide]
[1]; [22]
  dose excreted in urine as this species: approximately 2%

## CCN(CC)C(=O)[C@]1(c2ccccc2)C[C@@H]1CN.Cl [(1R,2S) enantiomer, (1R,2S)-2-aminomethyl-1-phenyl-N,N-diethylcyclopropanecarboxamide hydrochloride]
clinical; human
  half-life: 4 to 6 h

## CCN(CC)C(=O)[C@@]1(c2ccccc2)C[C@H]1CN.Cl [(1S,2R) enantiomer, (1S,2R)-2-aminomethyl-1-phenyl-N,N-diethylcyclopropanecarboxamide hydrochloride]
clinical; human
  half-life: 8 to 10 h

## CCNC(=O)[C@]1(c2ccccc2)C[C@@H]1CN [N-desethyl milnacipran]
[1]; [22]
  dose excreted in urine as this species: Approximately 8%
